Results reported in patent publication EP4678638A1, “NEW E3 UBIQUITIN LIGASE LIGAND, PROTEIN DEGRADATION AGENT AND USE THEREOF” (priority 2023, dated 2024).

Target: T1, human Cereblon WT GST-tagged protein (Homo sapiens, UniProt Q96SW2)
T1 construct: purchased CISBIO 64BDCRBNPEH
Assay: CRBN binding, HTRF (CEREBLON BINDING kit)
Conditions: Table II-2, CRBN binding screening, HTRF; for inhibition at 0.5 µM: read-out: Inhibition rate (%) at 0.5µM; for inhibition at 2 µM: read-out: Inhibition rate (%) at 2 µM
Description: The CEREBLON BINDING kits (specification: 10,000 tests; product number: Catalog # 64BDCRBNPEH; CISBIO company) was used to determine the CRBN binding ability of the compounds to be tested through a HTRF method (homogeneous time-resolved fluorescence). The specific methods are as follows: • 1. […] Then, 2.5 µL of human Cereblon WT GST-tagged protein solution was added to each well. Finally, 5 µL of the thoroughly mixed Thalidomide-Re reagent and GST Eu antibody working solution were added to each of the aforementioned wells. […] The blank control wells were sequentially added with 2.5 µL of diluent #9 (1X) solution, 2.5 µL of binding buffer, and 5 µL of thoroughly mixed Thalidomide-Re reagent and GST Eu antibody working solution. • 4. After sealing and incubating the solutions in the aforementioned wells at room temperature for 3 hours, the […] at emission wavelengths of 620 nm and 665 nm were detected by the HTRF method using a Spark microplate reader (V3.1 SP1).

T1 sequence (Q96SW2 whole entry): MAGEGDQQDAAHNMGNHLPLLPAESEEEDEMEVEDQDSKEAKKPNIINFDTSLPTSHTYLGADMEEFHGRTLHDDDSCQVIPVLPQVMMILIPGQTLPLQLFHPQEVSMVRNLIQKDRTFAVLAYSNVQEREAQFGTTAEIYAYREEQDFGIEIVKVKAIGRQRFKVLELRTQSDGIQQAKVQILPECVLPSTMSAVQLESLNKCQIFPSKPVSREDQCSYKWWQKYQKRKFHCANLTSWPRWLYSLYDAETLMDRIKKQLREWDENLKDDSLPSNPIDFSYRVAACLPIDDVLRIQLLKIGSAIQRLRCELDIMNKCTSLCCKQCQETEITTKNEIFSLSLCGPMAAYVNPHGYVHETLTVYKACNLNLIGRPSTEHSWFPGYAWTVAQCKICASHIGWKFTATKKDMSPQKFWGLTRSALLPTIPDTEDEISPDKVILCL

O=C1CCC(c2cc(CN3CCC(n4cc(NC(=O)c5cnn6ccc(N7C[C@H]8C[C@@H]7CO8)nc56)c(C(F)F)n4)CC3)ccn2)C(=O)N1 (stereo partly drawn) [GT-07776, 5-((1R,4R)-2-oxa-5-azabicyclo[2.2.1]heptan-5-yl)-N-(3-(difluoromethyl)-1-(1-((2-(2,6-dioxopiperidin-3-yl)pyridin-4-yl)methyl)piperidin-4-yl)-1H-pyrazol-4-yl)pyrazolo[1,5-a]pyrimidine-3-carboxamide]
inhibition at 0.5 µM (at 0.5µM): 20 to 30% | inhibition at 2 µM (at 2 µM): 60 to 80%

O=C1CCC(c2ccc(CN3CCC(n4cc(NC(=O)c5cnn6ccc(N7C[C@H]8C[C@@H]7CO8)nc56)c(C(F)F)n4)CC3)nc2)C(=O)N1 (stereo partly drawn) [GT-07777, 5-((1R,4R)-2-oxa-5-azabicyclo[2.2.1]heptan-5-yl)-N-(3-(difluoromethyl)-1-(1-((5-(2,6-dioxopiperidin-3-yl)pyridin-2-yl)methyl)piperidin-4-yl)-1H-pyrazol-4-yl)pyrazolo[1,5-a]pyrimidine-3-carboxamide]
inhibition at 0.5 µM (at 0.5µM): 53 to 60% | inhibition at 2 µM (at 2 µM): 80 to 100%

O=C1CCC(c2cncc(CN3CCC(n4cc(NC(=O)c5cnn6ccc(N7C[C@H]8C[C@@H]7CO8)nc56)c(C(F)F)n4)CC3)c2)C(=O)N1 (stereo partly drawn) [GT-07778, 5-((1R,4R)-2-oxa-5-azabicyclo[2.2.1]heptan-5-yl)-N-(3-(difluoromethyl)-1-(1-((5-(2,6-dioxopiperidin-3-yl)pyridin-3-yl)methyl)piperidin-4-yl)-1H-pyrazol-4-yl)pyrazolo[1,5-a]pyrimidine-3-carboxamide]
inhibition at 0.5 µM (at 0.5µM): 40 to 53% | inhibition at 2 µM (at 2 µM): 80 to 100%

CC(C)Nc1cc(-n2ccc3cc(C#N)cnc32)ncc1C(=O)NC1CCN(Cc2cc(N3CCC(=O)NC3=O)cnc2F)CC1 [GT-07779, 6-(5-cyano-1H-pyrrolo[2,3-b]pyridin-1-yl)-N-(1-((5-(2,4-dioxotetrahydropyrimidin-1(2H)-yl)-2-fluoropyridin-3-yl)methyl)piperidin-4-yl)-4-(isopropylamino)nicotinamide]
inhibition at 0.5 µM (at 0.5µM): 20 to 30% | inhibition at 2 µM (at 2 µM): 60 to 80%

CC(C)(O)c1cc2nn(C3CCN(Cc4cc(N5CCC(=O)NC5=O)cnc4F)CC3)cc2cc1NC(=O)c1cccc(C(F)(F)F)n1 [GT-07783, N-(2-(1-((5-(2,4-dioxotetrahydropyrimidin-1(2H)-yl)-2-fluoropyridin-3-yl)methyl)piperidin-4-yl)-6-(2-hydroxypropan-2-yl)-2H-indazol-5-yl)-6-(trifluoromethyl)picolinamide]
inhibition at 0.5 µM (at 0.5µM): 30 to 40% | inhibition at 2 µM (at 2 µM): 60 to 80%

O=C1CCN(c2cnc(F)c(CN3CCC(n4cc(NC(=O)c5cnn6ccc(N7CCOCC7)nc56)c(C(F)F)n4)CC3)c2)C(=O)N1 [GT-07789, N-(3-(difluoromethyl)-1-(1-((5-(2,4-dioxotetrahydropyrimidin-1(2H)-yl)-2-fluoropyridin-3-yl)methyl)piperidin-4-yl)-1H-pyrazol-4-yl)-5-morpholinopyrazolo[1,5-a]pyrimidine-3-carboxamide]
inhibition at 0.5 µM (at 0.5µM): 20 to 30% | inhibition at 2 µM (at 2 µM): 60 to 80%

O=C1CCN(c2cnc(F)c(CN3CCC(n4cc(NC(=O)c5cnn6ccc(N7C[C@H]8C[C@@H]7CO8)nc56)c(C(F)F)n4)CC3)c2)C(=O)N1 [GT-07791, 5-((1R,4R)-2-oxa-5-azabicyclo[2.2.1]heptan-5-yl)-N-(3-(difluoromethyl)-1-(1-((5-(2,4-dioxotetrahydropyrimidin-1(2H)-yl)-2-fluoropyridin-3-yl)methyl)piperidin-4-yl)-1H-pyrazol-4-yl)pyrazolo[1,5-a]pyrimidine-3-carboxamide]
inhibition at 0.5 µM (at 0.5µM): 30 to 40% | inhibition at 2 µM (at 2 µM): 60 to 80%

CC(C)(O)c1cc2nn(C3CCN(Cc4cc(C5CCC(=O)NC5=O)cnc4F)CC3)cc2cc1NC(=O)c1cccc(C(F)(F)F)n1 (centres unmarked) [GT-07793, N-(2-(1-((5-(2,6-dioxopiperidin-3-yl)-2-fluoropyridin-3-yl)methyl)piperidin-4-yl)-6-(2-hydroxypropan-2-yl)-2H-indazol-5-yl)-6-(trifluoromethyl)picolinamide]
inhibition at 0.5 µM (at 0.5µM): 60 to 80% | inhibition at 2 µM (at 2 µM): 80 to 100%

COc1cc2nn(C3CCN(Cc4cc(N5CCC(=O)NC5=O)cnc4F)CC3)cc2cc1NC(=O)c1cccc(C(F)(F)F)n1 [GT-07799, N-(2-(1-((5-(2,4-dioxotetrahydropyrimidin-1(2H)-yl)-2-fluoropyridin-3-yl)methyl)piperidin-4-yl)-6-methoxy-2H-indazol-5-yl)-6-(trifluoromethyl)picolinamide]
inhibition at 0.5 µM (at 0.5µM): 20 to 30% | inhibition at 2 µM (at 2 µM): 60 to 80%

CN(Cc1cc(N2CCC(=O)NC2=O)cnc1F)C1CCN(c2ccc(-c3cc(F)c4c(c3)C(=O)N(C(C(=O)Nc3nccs3)c3ncn5c3CCC5)C4)cc2)CC1 (centres unmarked) [GT-07823, 2-(6,7-dihydro-5H-pyrrolo[1,2-c]imidazol-1-yl)-2-(6-(4-(4-(((5-(2,4-dioxotetrahydropyrimidin-1(2H)-yl)-2-fluoropyridin-3-yl)methyl)(methyl)amino)piperidin-1-yl)phenyl)-4-fluoro-1-oxoisoindolin-2-yl)-N-(thiazol-2-yl)acetamide]
inhibition at 0.5 µM (at 0.5µM): 53 to 60% | inhibition at 2 µM (at 2 µM): 80 to 100%

O=C1CCN(c2cnc(F)c(CN3C[C@H]4C[C@@H]3CN4c3ccc(-c4cc(F)c5c(c4)C(=O)N(C(C(=O)Nc4nccs4)c4ncn6c4CCC6)C5)cc3)c2)C(=O)N1 (stereo partly drawn) [GT-07825, 2-(6,7-dihydro-5H-pyrrolo[1,2-c]imidazol-1-yl)-2-(6-(4-((1R,4R)-5-((5-(2,4-dioxotetrahydropyrimidin-1(2H)-yl)-2-fluoropyridin-3-yl)methyl)-2,5-diazabicyclo[2.2.1]heptan-2-yl)phenyl)-4-fluoro-1-oxoisoindolin-2-yl)-N-(thiazol-2-yl)acetamide]
inhibition at 0.5 µM (at 0.5µM): 60 to 80% | inhibition at 2 µM (at 2 µM): 80 to 100%

O=C1CCN(c2cnc(CN3C[C@H]4C[C@@H]3CN4c3ccc(-c4cc(F)c5c(c4)C(=O)N(C(C(=O)Nc4nccs4)c4ncn6c4CCC6)C5)cc3)cn2)C(=O)N1 (stereo partly drawn) [GT-07826, 2-(6,7-dihydro-5H-pyrrolo[1,2-c]imidazol-1-yl)-2-(6-(4-((1R,4R)-5-((5-(2,4-dioxotetrahydropyrimidin-1(2H)-yl)pyrazin-2-yl)methyl)-2,5-diazabicyclo[2.2.1]heptan-2-yl)phenyl)-4-fluoro-1-oxoisoindolin-2-yl)-N-(thiazol-2-yl)acetamide]
inhibition at 0.5 µM (at 0.5µM): 10 to 20% | inhibition at 2 µM (at 2 µM): 53 to 60%

CC1(C)CCC(c2ccc(Cl)cc2)=C(CN2CCN(c3ccc(C(=O)NS(=O)(=O)c4ccc(N[C@H](CCN5CC6CCC5CN6Cc5ccc(C6CCC(=O)NC6=O)cc5)CSc5ccccc5)c(S(=O)(=O)C(F)(F)F)c4)cc3)CC2)C1 (stereo partly drawn) [GT-07878, 4-(4-((4'-chloro-4,4-dimethyl-3,4,5,6-tetrahydro-[1,1'-biphenyl]-2-yl)methyl)piperazin-1-yl)-N-((4-(((2R)-4-(5-(4-(2,6-dioxopiperidin-3-yl)benzyl)-2,5-diazabicyclo[2.2.2]octan-2-yl)-1-(phenylthio)butan-2-yl)amino)-3-((trifluoromethyl)sulfonyl)phenyl)sulfonyl)benzamide]
Inhibition rate (%) at 0.5µM (at 0.5µM): a3 (30% < a3 ≤ 40%) | Inhibition rate (%) at 2 µM (at 2 µM): a5 (53% < a5 ≤ 60%)
